The source of these data is patent publication US20050118675A1, “Heptahelix receptor and its use as leukotriene B4 receptor” (Owman Investment Ltd., priority 1997, published 2005).

In experiment [1] the test system is sham-transfected COS-7 cells. The experiment can be described thus: [3H]LTB4 binding to membranes from sham-transfected COS-7 cells. The arrangement: species or system African green monkey. As for the experimental part: (§1) Intact plasmid DNA (10-25 μg) of the cDNA clone, Lyme21-9 (1), was transfected using the calcium phosphate precipitation method. Chinese hamster ovary cells (CHO-K1) were used to establish stable expression of the corresponding receptor, CMKRL1. The pCDneo vector was co-transfected to allow for selection with G-418)Geneticin, 500 μg/ml). Single resistant colonies were isolated to obtain homogenous cell lines, and appropriate expression of the corresponding mRNA were verified by Northern blot hybridization with cDNA probes. SV40 transformed African green monkey kidney cells (COS-7) were used for transient expression. These cells were harvested after 48 hrs for preparation and isolation of membranes. Sham-transfected cells were used as controls throughout.
The transiently transfected COS-7 cells were washed with PBS, which was replaced with 50 mM TRIS/HCl buffer (pH 7.4) containing 1 mM EGTA and 5 mM MgCl2, and scraped off. After homogenization for 20 sec in a Polytron homogenizer (Brinkmann, setting 5.5) the material was centrifuged at 20,000 rpm for 30 min at 4° C., followed by washing through homogenization in the TRIS binding buffer and subsequent recentrifugation, which was repeated twice. The pellet was finally resuspended by homogenization and stored in liquid nitrogen until used. […]

The target of experiment [2] is T1, CMKRL1 (Homo sapiens, UniProt Q15722).
T1 construct: A full-length cDNA (Lyme21-9) encoding a novel putative seven-transmembrane (7TM) domain receptor, named CMKRL1; expressed in transfected cells
The experiment can be described thus: Intracellular calcium (Fura-2) in CHO cells stably expressing CMKRL1. In kind it is cell-based. Conditions: 1000 nM LTB4. As for the experimental part:
as §1, with “throughout. […]” for “throughout.”
Agonists were added in 50 μl of extracellular medium buffer and mixed thoroughly with the original contents of the well. Fluorescence images were obtained by alternate excitation at 340 and 380 nm, and the emitted light was measured at 510 nm. The software configuration allowed for storage of fluorescence information from groups of cells, which could then be analyzed separately. Intracellular calcium concentrations were calibrated using the method described by William and Fay (5) and calculated from the aforementioned radiometric images using the mathematical relationship described by Grynkiewicz et al. (6). […]
(A change in cytosolic calcium serves as a functional read-out for many receptors and channels.)

The subject of experiment [3] is sham-transfected control cells. The experiment can be described thus: Intracellular calcium (Fura-2) in sham-transfected CHO control cells. In kind it is cell-based, Chinese hamster. Particulars: any dose level, shown for 1000 nM. Here is the method: as §1, with “These cells were harvested after 48 hrs for preparation and isolation of membranes. Sham-transfected cells were used as controls throughout.” left out
Transfected cells were seeded into 96-well plates (Corning-Costar) by dissociating confluent cultures using PBS containing 2 mM EDTA, diluting the resulting suspension 20×, and adding 50 μl per well. […] After 3 washes in extracellular medium buffer (135 mM NaCl, 4.6 mM KCl, 1.2 MM MgCl2, 1.5 mM CaCl2, 11 mM glucose, 11 mM Hepes, pH 7.4), the plates were mounted on the stage of a Nikon inverted fluorescence microscope attached to an SIT-camera and an image analysis system (Photon Technology International). […]
Agonists were added in 50 μl of extracellular medium buffer and mixed thoroughly with the original contents of the well. Fluorescence images were obtained by alternate excitation at 340 and 380 nm, and the emitted light was measured at 510 nm. […]

The target in experiment [4] is T1, CMKRL1. Briefly: [3H]LTB4 saturation binding to membranes from COS-7 cells transiently transfected with Lyme21-9 cDNA. Particulars: for Bmax: Scatchard analysis, COS-7 membranes, 4° C.; for binding sites identified: saturation binding, linear Scatchard plot. Here is the method:
as §1
The transiently transfected COS-7 cells were washed with PBS, which was replaced with 50 mM TRIS/HCl buffer (pH 7.4) containing 1 mM EGTA and 5 mM MgCl2, and scraped off. After homogenization for 20 sec in a Polytron homogenizer (Brinkmann, setting 5.5) the material was centrifuged at 20,000 rpm for 30 min at 4° C., followed by washing through homogenization in the TRIS binding buffer and subsequent recentrifugation, which was repeated twice. The pellet was finally resuspended by homogenization and stored in liquid nitrogen until used. For the binding studies, membrane material corresponding to 30 μg protein ([…]) was blended with ice-cold binding buffer (0.02 M Hepes buffer containing 10 mM CaCl2 and MgCl2) to a final volume of 70 μl and added to wells in a 96-well polypropylene plate. […] Each data point is the result of the mean of triplicate wells from three separate experiments, which have in turn been averaged.

Entries after “also recorded” stand apart in the source; their conditions may differ.

T1 sequence (Q15722 whole entry): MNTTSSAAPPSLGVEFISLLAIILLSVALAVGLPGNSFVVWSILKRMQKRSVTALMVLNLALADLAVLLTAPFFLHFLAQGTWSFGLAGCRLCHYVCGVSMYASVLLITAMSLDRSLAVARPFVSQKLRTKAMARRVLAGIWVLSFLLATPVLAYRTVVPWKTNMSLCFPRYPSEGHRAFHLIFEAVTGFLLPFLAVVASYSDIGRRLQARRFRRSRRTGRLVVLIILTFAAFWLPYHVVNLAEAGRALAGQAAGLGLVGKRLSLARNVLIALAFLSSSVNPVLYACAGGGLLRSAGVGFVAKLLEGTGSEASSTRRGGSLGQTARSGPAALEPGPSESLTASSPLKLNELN

Consider `CCCCC/C=C\C[C@@H](O)/C=C/C=C/C=C\[C@@H](O)CCCC(=O)O` [LTB4, leukotriene B4], for which the specific binding result in experiment [1] is “No binding”. Also, the “increase in intracellular calcium in calcium-free medium” value on CMKRL1 [2] was “no longer included any significant increase; also recorded: No response”. The “effect on intracellular calcium in sham-transfected control cells” value in experiment [3] was “completely without effect; also recorded: No response; also recorded: No binding or activation”.
As to `CCCCC/C=C\C[C@@H](O)/C=C/C=C\C=C\[C@@H](O)CCCC(=O)O` [[^3H]LTB4], the Bmax came out at 17.0 ± 2.0 pmoles/mg protein at CMKRL1 [4] and 17.0 pmoles/mg protein at CMKRL1 [4] (listed as tritiated LTB4). Also, on CMKRL1 [4] (binding of tritiated ligand in the presence of 1 μM non-labelled ligand), the “Non-specific binding as share of the total binding” value was “less than 15%”. Further, the “binding sites identified” value on CMKRL1 [4] is given as “single class of high-affinity binding sites”; on CMKRL1 [4] (listed as tritiated LTB4) it was “binds with high affinity to a single receptor population”. Moreover, the specific binding result in experiment [1] is reported as “no specific binding”.
